# Data: patent US11591596B2, “Compounds and compositions including phosphorothioated oligodeoxynucleotide, and methods of use thereof” (City of Hope, priority 2015, dated 2023)
# Tests used:
# [1] = test system: long term hematopoietic stem cells (LTHSC, Lin-Sca-1+c-kit+Fit3-CD150+CD48−) from normal and CML mouse; experiment: Cell cycling of murine LTHSC by EDU/DAPi staining; type: cell-based; conditions: 500 nM, compared with the CpG-Scr
# Experimental: Normal (NL) and CML murine LTHSC (Lin-Sca-1+Kit+Fit3− CD150+CD48− cells) were sorted and then treated with 500 nm CpG-miR126 inhibitor or CpG-SCR for 72 hours, then cell cycling was analyzed by EDU/DAPi staining.
# miR-126 = experiment: In vitro and in vivo uptake and miR-126 silencing (K562, HUVEC, CD34+CD38- cells, murine CML BM, LTHSC, EC, mice); design: species or system human and mouse; conditions: 500 nM in vitro; 5 mg/kg iv in vivo
# Experimental: FIGS. 23A-23K. […] Uptake test measured by flow cytometric analysis at 4 hours (FIG. 23A) and 24 hours (FIG. 23B) after addition of CpG-miR-126 inhibitor-Cy3 (CpG), Ab-NPs (Ab-NP) or TF-NPs (TF-NP) containing miR-126 inhibitor-Cy3, or naked miR-126 inhibitor-Cy3 (labeled as Control in FIGS. 23A and B) in K562 cells. The experiment was replicated twice. miR-126 expression in K562 was measured by Q-RT-PCR at 24 hours (n=3) (FIG. 23C). Uptake in HUVEC (FIG. 23D), human normal (FIG. 23E) and CML (FIG. 23F) CD34^+CD38^− cells at 4 hours after addition of CpG-miR-126 inhibitor-Cy3 (500 nM) was measured by flow cytometry. miR-126 expression in HUVEC (FIG. 23G), normal (FIG. 23H) and CML (FIG. 23I) CD34^+CD38^− cells treated with CpG-miR-126 inhibitor (500 nM) for 24 hours is shown (n=4). […]
# FIGS. 25A-25O. […] Murine CML BM, LTHSC and EC cells were treated with CpG-miR-126 inhibitor-Cy3 (500 nM) for 4 hours and then Cy3^+ cells were detected by flow cytometry (FIG. 25A). The cells were also collected at 24 hours and miR-126 expression was determined by Q-RT-PCR (FIG. 25B). Cell cycling was measured by EDU staining at 72 hours after addition of CpG-miR-126 inhibitor in CML BM LTHSC. […] CML mice were treated with CpG-miR-126 inhibitor-Cy3 with one dose (5 mg/kg, iv injection) and Cy3 uptake in BM, LTHSC and EC was measured at 16 hours after treatment by flow cytometry (FIG. 25D). […]
substance,measurement,setting,value
5′ G*G*T GCA TCG ATG CAGG*G*G* G*G (SEQ ID NO: 1) xxxxx mCmGmC mAmUmU mAmUmU mAmCmU mCmAmC mGmGmU mAmCmG mA (SEQ ID NO: 17) 3′ [CpG-anti-miR126],cell-cycle entry,[1],increased cell-cycle entry
same,uptake and gene silencing effects,miR-126,Effective in vitro and in vivo uptake and gene silencing effects
